Where “and” joins values, the source holds several entries; their conditions need not be identical. Equal values may be shown once.
How the values were obtained:
[1] = system: E. faecium EF1509 (VRE); assay: Antibacterial activity (MIC, broth dilution); format: cell-based; conditions: CLSI, in µg/mL
Procedure: (§1) Determination of the Minimal Inhibitory Concentrations (MIC) by dilution was carried out by broth dilution according to CLSI standards.

[2] = system: E. faecium F118 (VRE); assay: Antibacterial activity (MIC, broth dilution); format: cell-based; conditions: CLSI, in µg/mL
Procedure: as §1

[3] = system: P. aeruginosa ATCC 27853; assay: Antibacterial activity (MIC, broth dilution); format: cell-based; conditions: CLSI
Procedure: as §1

[4] = Lipid II binding by Surface Plasmon Resonance; conditions: SPR, immobilized 3-Lipid II, 25°C
Method in brief: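 Farnesyl (3-isoprene) Lipid II amine-coupled (50 RUs) on CM5 chips. Compounds injected at 10 μM, 30 μl/min, 25°C, in 10 mM HEPES, 150 mM NaCl, 0.05% P20, pH 7.4 (± 3 mM EDTA), 10% DMSO. Signals corrected against control flow-cell; kinetics fitted from binding isotherms.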

[5] = system: lipid synthesis in E. faecalis EF1509; assay: Macromolecular synthesis assay: lipid synthesis; format: cell-based; conditions: Enterococcus faecalis; E. faecalis EF1509, [3H] glycerol incorporation; read-out: IC50 inhibition of lipid synthesis
Procedure: The effect of compounds on the macromolecular synthetic pathways of E. faecalis EF1509 were measured as follows: Cells were grown at 35°C overnight on Tryptic Soy Agar Broth (Remel, Lenexa, KS), and growth from the plate was used to inoculate 15 ml of Mueller Hinton Broth. The culture was grown to early exponential growth phase (OD600 = 0.2 to 0.3) while incubating in a shaker at 35°C and 150 rpm. For each macromolecular assay, the test agents were added at either 0, 0.25, 0.5, 1, 2, or 4, -fold their respective MIC values for E. faecalis EF1509.
For lipid synthesis, bacterial cells were grown to early exponential growth phase in MHB and 100 μl was added to 1.5 ml Eppendorf tubes (in triplicate) containing various concentrations of test compound or control antibiotics as described above. Following a 5 min incubation at room temp., [^3H] glycerol was added at 0.5 μCi per reaction. Reactions were allowed to proceed at room temperature for 40 min and then stopped through the addition of 375 μl of chloroform/methanol (1:2) followed by vortexing for 20 sec after. Chloroform (125 μl) was then added to each reaction and vortexed, followed by the addition of 125 μl dH2O and vortexing. […] Samples were then counted via liquid scintillation counting. […]

[6] = Liver microsome stability; format: in vitro ADME; conditions: human liver microsomes, pH 7.4, 1h 37 °C
Procedure: The in vitro microsome stability assay was performed using human liver microsomes and a Biomek FXP liquid handling workstation to deliver reagents to a 96 deep well plate on a shaking peltier with temperature controls. Human liver microsomes were purchased from Corning®. The test compound was incubated in an aqueous reaction mixture (200 ul total volume) consisting of human liver microsomes (150 mixed donor pool) and NADPH Regenerating System Solutions A and B (Corning®) in the presence of 100 mM potassium phosphate buffer (pH 7.4). The NADPH solution A comprises nicotinamide adenine dinucleotide phosphate (NADP+) and glucose 6-phosphate and solution B contains glucose-6-phosphate dehydrogenase. Solutions A and B were combined prior to adding to the reaction plate to generate a supply of NADPH. The NADPH was added last to simultaneously initiate the reactions. The final concentration of the test compound was 10 uM and the microsomal protein concentration was 0.5 mg/ml. After incubation at 37°C, the reaction was terminated at 0, 5, 10, 20, 30, 40, 50 and 60 minutes, respectively, by the addition of 600 uL of acetonitrile. Three replicates were run for each time point. The quenched reaction plate was centrifuged at 4500 rpm for 10 minutes. The supernatant was diluted 1:2 in 30% Methanol in water for LC/MS/MS analyses to monitor substrate depletion. Water was substituted for NADPH for the zero time-point samples. A control plate, without NADPH cofactor, was completed on the same day, using the same conditions.
The half-life (t1/2) was obtained using the equation below: t1/2=−0.693/slope
Where slope is the slope of the line formed by ln(% remaining test compound) vs. time. The in vitro intrinsic clearance (CLint) value was calculated using equation: CLint=(0.693/t1/2)(incubation volume(ul)/total microsomal protein(mg))

[7] = Plasma stability (50% serum, LC/MS/MS); format: in vitro ADME
Procedure: Samples were taken after 2 min, 5min, 15min, 30min, 1h, 2h and 19h. Stability of compound was quantified by LC/MS/MS. Experiments were carried out by Pharmaron, Inc., (Beijing, China).

[8] = design: method as in PMID 25987836; conditions: IV, parent compound for comparison; cited from earlier work

Row | SMILES | Antibacterial activity (MIC) E. faecium EF1509 (VRE) [1] | Antibacterial activity (MIC) E. faecium F118 (VRE) [2] | Antibacterial activity (MIC) P. aeruginosa ATCC 27853 [3] | Kd [4] | IC50 [5] | half-life at 10 uM ([6]; read-out: Liver microsome stability Half-life) | microsomal CLint at 10 uM ([6]; read-out: Liver microsome stability clearance) | Stability in serum ([7]; after 2 hours) | Compound remaining in serum ([7]; after 19h, 10 μg/ml) | AUCInf [8] | AUClast [8] | Cl_obs [8] | Cmax [8] | T1/2 [8] | Vss_obs [8]
1 | CN(C)c1ccc(/C=C/c2cc(-c3ccc(Br)cc3)cc(-c3ccc(Br)cc3)[o+]2)cc1 [6jc48-1] | 2.828 | 5.657 | ≥ 64 µg/mL | 150 ± 30 nM | 7.8 µg/mL | > 60 min | < 23 µL/min/mg | fully stable after 2 hours in serum | 46% |  |  |  |  |  | 
2 | CN1/C(=C/C=C/c2cc(-c3ccccc3)cc(-c3ccccc3)[o+]2)C(C)(C)c2ccccc21 [BAS-00127538, (1-Methyl-2,4-diphenyl-6-((1E,3E)-3-(1,3,3-trimethylindolin-2-ylidene)prop-1-en-1-yl)pyryl-1-ium) tetrafluoroborate, reference compound] |  |  |  | 1810 ± 300 nM | 2.3 µg/mL |  |  |  |  | 27.9 ng·h/mL | 26.9 ng·h/mL | 711 mL/min/kg | 101 ng/mL | 13.2 min and 13.6 min | 12.2 L/kg

— publication PMC5077133, “Towards Development of Small Molecule Lipid II Inhibitors as Novel Antibiotics” (PLoS ONE, 2016)
